Laboratory results as given in ChEMBL document CHEMBL1909046, “DrugMatrix in vitro pharmacology data”.
pIC50, pKi: −log10 of the molar value.

Legend:
[1] = target: T1, Alpha-1A adrenergic receptor (Rattus norvegicus, UniProt P43140); test: DRUGMATRIX: Alpha-1A adrenergic receptor radioligand binding (ligand: prazosin); assay type: cell membranes, Wistar, Submaxillary gland, Membrane; settings: Not Active = under 50% inhibition at 10 µM; for pIC50: read-out: IC50; for pKi: read-out: Ki
T1 sequence (P43140 whole entry): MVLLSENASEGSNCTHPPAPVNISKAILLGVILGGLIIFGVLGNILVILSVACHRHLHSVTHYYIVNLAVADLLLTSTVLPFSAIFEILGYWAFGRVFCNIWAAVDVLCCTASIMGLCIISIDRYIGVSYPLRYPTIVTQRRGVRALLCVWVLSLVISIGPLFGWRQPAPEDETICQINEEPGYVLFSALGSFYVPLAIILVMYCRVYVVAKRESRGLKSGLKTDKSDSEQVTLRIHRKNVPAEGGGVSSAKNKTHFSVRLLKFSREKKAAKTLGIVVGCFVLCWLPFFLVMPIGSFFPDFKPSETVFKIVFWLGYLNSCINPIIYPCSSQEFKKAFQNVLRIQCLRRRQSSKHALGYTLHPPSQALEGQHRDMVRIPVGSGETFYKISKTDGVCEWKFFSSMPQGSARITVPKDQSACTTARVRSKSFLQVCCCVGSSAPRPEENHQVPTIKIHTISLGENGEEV

[2] = DRUGMATRIX: beta-Lactamase enzyme inhibition (substrate: Nitrocefin); parameters: species or system Bacillus cereus; settings: Not Active = under 50% inhibition at 10 µM
[3] = DRUGMATRIX: Calcium Channel Type L, Benzothiazepine radioligand binding (ligand: [3H] Diltiazem); assay type: cell membranes, Rattus norvegicus, Wistar, Brain, Membrane; settings: Not Active = under 50% inhibition at 10 µM
[4] = target: Vascular endothelial growth factor receptor 1 (Homo sapiens, UniProt P17948); assay type: cell-based; settings: huvec; further: in other assays of this panel Not Active means under 50% inhibition at 10 µM
Vascular endothelial growth factor receptor 1, sequence (P17948 whole entry): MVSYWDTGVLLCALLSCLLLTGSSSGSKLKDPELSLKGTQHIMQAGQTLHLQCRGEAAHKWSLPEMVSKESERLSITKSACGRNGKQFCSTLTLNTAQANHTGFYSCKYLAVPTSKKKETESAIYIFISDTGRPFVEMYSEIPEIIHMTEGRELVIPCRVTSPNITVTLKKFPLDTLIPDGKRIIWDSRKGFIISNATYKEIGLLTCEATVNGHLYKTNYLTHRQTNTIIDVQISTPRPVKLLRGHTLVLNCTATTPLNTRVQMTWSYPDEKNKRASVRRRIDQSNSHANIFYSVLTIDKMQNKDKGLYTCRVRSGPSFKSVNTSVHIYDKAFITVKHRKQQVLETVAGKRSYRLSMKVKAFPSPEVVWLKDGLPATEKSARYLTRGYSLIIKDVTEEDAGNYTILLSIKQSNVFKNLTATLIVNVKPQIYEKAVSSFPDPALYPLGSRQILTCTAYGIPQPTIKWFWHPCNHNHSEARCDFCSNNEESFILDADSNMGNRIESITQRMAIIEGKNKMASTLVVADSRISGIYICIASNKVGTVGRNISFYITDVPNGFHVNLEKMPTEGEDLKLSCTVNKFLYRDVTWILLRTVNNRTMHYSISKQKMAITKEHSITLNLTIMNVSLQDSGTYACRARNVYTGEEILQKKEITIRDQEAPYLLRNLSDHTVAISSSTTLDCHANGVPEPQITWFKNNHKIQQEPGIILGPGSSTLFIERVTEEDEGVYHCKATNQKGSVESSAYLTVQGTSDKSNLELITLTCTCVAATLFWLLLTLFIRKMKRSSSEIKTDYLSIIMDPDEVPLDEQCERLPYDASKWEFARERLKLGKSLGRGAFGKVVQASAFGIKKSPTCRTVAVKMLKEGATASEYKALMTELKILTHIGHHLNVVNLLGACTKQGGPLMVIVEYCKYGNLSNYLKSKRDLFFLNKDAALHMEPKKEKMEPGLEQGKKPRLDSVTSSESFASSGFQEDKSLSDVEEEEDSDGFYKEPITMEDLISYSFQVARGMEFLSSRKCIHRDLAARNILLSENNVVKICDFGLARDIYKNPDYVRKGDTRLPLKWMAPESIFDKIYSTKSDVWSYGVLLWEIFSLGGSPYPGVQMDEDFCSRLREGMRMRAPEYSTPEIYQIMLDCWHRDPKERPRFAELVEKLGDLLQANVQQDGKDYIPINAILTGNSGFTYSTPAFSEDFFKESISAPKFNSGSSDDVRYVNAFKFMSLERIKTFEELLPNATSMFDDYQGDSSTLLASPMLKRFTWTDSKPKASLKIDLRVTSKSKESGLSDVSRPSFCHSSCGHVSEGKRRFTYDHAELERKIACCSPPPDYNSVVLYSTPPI

[5] = target: T2, D(4) dopamine receptor (Homo sapiens, UniProt P21917); test: DRUGMATRIX: Dopamine D4.2 radioligand binding (ligand: [3H] Spiperone); assay type: cell membranes, CHO-K1, Membrane; settings: Not Active = under 50% inhibition at 10 µM; for IC50: cho-k1
T2 sequence (P21917 whole entry): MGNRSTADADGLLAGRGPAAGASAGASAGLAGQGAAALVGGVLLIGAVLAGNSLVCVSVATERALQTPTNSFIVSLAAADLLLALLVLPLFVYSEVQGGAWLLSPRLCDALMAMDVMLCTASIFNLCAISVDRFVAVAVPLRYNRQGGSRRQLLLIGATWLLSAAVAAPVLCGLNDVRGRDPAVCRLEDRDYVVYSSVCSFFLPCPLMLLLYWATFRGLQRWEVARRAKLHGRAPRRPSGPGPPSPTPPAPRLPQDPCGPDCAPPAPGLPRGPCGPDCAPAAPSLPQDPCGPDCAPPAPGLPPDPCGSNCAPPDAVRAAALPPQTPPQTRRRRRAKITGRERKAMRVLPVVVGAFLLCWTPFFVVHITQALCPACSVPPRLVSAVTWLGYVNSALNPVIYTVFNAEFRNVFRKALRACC

[6] = DRUGMATRIX: GABAA, Chloride Channel, TBOB radioligand binding (ligand: [3H] TBOB); assay type: cell membranes, Rattus norvegicus, Wistar, Cerebral cortex, Membrane; settings: Not Active = under 50% inhibition at 10 µM
[7] = DRUGMATRIX: Glutamate, NMDA, Phencyclidine radioligand binding (ligand: [3H] TCP); assay type: cell membranes, Rattus norvegicus, Wistar, Cerebral cortex, Membrane; settings: Not Active = under 50% inhibition at 10 µM
[8] = target: Histamine H2 receptor (Homo sapiens, UniProt P25021); assay type: cell membranes, CHO-K1, Membrane; settings: cho-k1; further: in other assays of this panel Not Active means under 50% inhibition at 10 µM
Histamine H2 receptor, sequence (P25021 whole entry): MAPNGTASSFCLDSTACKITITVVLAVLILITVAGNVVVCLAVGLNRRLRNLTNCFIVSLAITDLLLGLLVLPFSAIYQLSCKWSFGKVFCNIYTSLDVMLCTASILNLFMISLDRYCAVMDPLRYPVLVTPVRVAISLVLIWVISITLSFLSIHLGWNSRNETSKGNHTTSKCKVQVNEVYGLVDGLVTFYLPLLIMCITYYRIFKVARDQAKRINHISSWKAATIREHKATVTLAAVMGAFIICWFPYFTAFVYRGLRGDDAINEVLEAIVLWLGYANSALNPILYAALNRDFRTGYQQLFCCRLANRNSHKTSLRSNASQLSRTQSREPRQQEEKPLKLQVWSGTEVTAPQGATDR

[9] = target: T3, Leukotriene C4 synthase (Cavia porcellus, UniProt A6XA80); test: biochemical; assay type: tissue-based, Lung;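 further: enzyme inhibition assay of leukotriene C4 synthase, using LTA4 as the substrate; in other assays of this panel Not Active means under 50% inhibition at 10 µM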
T3 sequence (A6XA80 whole entry): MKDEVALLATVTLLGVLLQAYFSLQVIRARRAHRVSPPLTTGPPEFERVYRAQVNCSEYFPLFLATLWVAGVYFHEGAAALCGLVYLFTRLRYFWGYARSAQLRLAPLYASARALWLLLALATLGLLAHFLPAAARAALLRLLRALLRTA

[10] = target: Melanocortin receptor 3 (Homo sapiens, UniProt P41968); assay type: cell membranes, Membrane; settings: hek293; further: in other assays of this panel Not Active means under 50% inhibition at 10 µM
Melanocortin receptor 3, sequence (P41968 whole entry): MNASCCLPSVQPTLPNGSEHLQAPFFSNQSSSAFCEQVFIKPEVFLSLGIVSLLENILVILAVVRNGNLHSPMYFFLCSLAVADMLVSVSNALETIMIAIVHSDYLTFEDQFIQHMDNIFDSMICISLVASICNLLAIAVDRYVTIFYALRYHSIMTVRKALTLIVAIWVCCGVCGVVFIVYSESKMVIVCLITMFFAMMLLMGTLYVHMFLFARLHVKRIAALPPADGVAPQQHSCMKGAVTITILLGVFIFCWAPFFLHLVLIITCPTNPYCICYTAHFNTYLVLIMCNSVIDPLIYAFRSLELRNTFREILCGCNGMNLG

[11] = target: Melanocortin receptor 4 (Homo sapiens, UniProt P32245); assay type: cell membranes, Membrane; settings: hek293; further: in other assays of this panel Not Active means under 50% inhibition at 10 µM
Melanocortin receptor 4, sequence (P32245 whole entry): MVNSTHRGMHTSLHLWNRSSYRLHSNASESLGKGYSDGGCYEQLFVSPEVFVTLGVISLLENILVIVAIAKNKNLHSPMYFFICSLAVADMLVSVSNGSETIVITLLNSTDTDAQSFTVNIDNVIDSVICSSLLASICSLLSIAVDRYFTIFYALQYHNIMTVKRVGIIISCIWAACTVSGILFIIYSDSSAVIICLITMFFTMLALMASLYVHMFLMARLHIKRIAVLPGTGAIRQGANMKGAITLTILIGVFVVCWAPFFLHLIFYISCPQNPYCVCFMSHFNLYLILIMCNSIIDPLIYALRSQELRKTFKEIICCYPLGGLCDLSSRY

[12] = target: T4, Neuropeptide Y receptor type 2 (Homo sapiens, UniProt P49146); assay type: cell membranes, Membrane; settings: kan-ts; further: in other assays of this panel Not Active means under 50% inhibition at 10 µM
T4 sequence (P49146 whole entry): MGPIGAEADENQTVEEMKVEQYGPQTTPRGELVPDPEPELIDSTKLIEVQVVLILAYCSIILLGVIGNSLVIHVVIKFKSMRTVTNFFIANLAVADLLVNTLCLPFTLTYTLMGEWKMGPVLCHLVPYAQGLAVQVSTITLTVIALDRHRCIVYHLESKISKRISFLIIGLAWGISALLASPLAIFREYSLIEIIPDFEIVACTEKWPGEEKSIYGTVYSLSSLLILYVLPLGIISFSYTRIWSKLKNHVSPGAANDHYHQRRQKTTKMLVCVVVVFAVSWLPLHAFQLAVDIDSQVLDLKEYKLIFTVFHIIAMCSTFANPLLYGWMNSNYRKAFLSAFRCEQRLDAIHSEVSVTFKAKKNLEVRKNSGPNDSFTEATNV

[13] = DRUGMATRIX: Nicotinic Acetylcholine radioligand binding (ligand: [125I] Epibatidine); assay type: cell membranes, Membrane; settings: imr-32; Not Active = under 50% inhibition at 10 µM
[14] = DRUGMATRIX: Platelet-Derived Growth Factor (PDGF) radioligand binding (ligand: [125I] PDGF); assay type: cell-based; settings: nih3t3; Not Active = under 50% inhibition at 10 µM
[15] = target: T5, Progesterone receptor (Bos taurus, UniProt Q690N0); test: DRUGMATRIX: Progesterone radioligand binding (ligand: [3H] R-5020); assay type: tissue-based, Uterus; settings: Not Active = under 50% inhibition at 10 µM
T5 sequence (Q690N0 whole entry): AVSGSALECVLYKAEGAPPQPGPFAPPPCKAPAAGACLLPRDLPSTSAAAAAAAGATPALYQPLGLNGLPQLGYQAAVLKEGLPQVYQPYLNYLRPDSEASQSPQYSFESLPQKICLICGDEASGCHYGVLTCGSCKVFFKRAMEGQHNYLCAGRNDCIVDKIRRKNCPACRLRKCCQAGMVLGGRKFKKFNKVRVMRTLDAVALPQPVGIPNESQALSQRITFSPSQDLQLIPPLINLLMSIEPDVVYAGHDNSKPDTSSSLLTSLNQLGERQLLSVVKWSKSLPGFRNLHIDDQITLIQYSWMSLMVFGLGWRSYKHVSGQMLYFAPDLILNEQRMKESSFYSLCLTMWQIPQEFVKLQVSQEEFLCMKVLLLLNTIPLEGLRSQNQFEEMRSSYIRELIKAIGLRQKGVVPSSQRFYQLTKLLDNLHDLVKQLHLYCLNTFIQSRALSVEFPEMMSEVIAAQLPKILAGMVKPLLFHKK

[16] = target: Tyrosine-protein kinase Fyn (Homo sapiens, UniProt P06241); test: biochemical; assay type: cell-based, Insect cells; settings: for IC50: insect cells; for pIC50: read-out: IC50
Tyrosine-protein kinase Fyn, sequence (P06241 whole entry): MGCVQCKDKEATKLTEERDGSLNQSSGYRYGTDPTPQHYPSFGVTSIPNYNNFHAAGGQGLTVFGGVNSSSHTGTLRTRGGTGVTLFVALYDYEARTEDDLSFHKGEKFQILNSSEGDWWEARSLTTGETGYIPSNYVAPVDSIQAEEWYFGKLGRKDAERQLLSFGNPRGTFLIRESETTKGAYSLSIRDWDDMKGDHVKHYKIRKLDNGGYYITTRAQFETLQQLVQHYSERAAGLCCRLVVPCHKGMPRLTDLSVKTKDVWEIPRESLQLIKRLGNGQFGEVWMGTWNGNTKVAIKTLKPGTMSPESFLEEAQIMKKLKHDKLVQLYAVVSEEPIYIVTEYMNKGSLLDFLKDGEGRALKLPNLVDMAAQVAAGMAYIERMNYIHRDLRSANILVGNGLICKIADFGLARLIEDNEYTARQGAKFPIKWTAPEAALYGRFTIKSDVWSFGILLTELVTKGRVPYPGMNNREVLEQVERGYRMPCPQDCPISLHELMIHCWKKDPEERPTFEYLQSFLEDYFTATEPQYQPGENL

[17] = target: Beta-1 adrenergic receptor (Homo sapiens, UniProt P08588); test: DRUGMATRIX: Adrenergic beta1 radioligand binding (ligand: [125I] Cyanopindolol); assay type: cell membranes, CHO-K1, Membrane; settings: cho-k1; Not Active = under 50% inhibition at 10 µM
Beta-1 adrenergic receptor, sequence (P08588 whole entry): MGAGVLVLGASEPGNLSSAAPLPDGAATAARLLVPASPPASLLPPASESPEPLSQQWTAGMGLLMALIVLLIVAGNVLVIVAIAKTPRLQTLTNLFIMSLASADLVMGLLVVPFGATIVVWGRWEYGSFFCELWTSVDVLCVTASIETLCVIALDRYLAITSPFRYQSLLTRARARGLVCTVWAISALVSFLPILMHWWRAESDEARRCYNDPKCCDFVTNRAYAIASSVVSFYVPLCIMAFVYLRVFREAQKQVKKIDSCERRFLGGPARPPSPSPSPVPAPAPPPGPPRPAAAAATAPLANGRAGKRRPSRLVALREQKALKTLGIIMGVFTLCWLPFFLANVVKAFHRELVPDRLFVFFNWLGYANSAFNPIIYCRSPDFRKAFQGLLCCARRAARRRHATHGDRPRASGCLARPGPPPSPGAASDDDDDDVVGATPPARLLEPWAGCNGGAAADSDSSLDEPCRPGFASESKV

| SMILES | IC50 [2] | Ki [2] | IC50 [3] | Ki [3] | IC50 [4] | IC50 [5] | IC50 [6] | Ki [6] | IC50 [7] | Ki [7] | IC50 [8] | IC50 [9] | IC50 [10] | IC50 [11] | IC50 [12] | IC50 [13] | Ki [13] | IC50 [14] | IC50 [15] | IC50 [16] | further results |
| --- | --- | --- | --- | --- | --- | --- | --- | --- | --- | --- | --- | --- | --- | --- | --- | --- | --- | --- | --- | --- | --- |
| CC(C)(C)NCC(O)c1ccc(O)c(CO)c1 (stereo unspecified) [ALBUTEROL] | Not Active | Not Active | Not Active | Not Active | Not Active | Not Active | Not Active | Not Active | Not Active | Not Active | Not Active | Not Active | Not Active | Not Active | Not Active | Not Active | Not Active | Not Active | Not Active | Not Active | IC50 [1]: Not Active; Ki [14]: Not Active |
| COc1ccc(CCN2CCC(Nc3nc4ccccc4n3Cc3ccc(F)cc3)CC2)cc1 [ASTEMIZOLE] |  |  |  |  | Not Active |  |  |  |  |  |  | Not Active |  |  | Not Active |  |  |  | Not Active |  | pIC50 [1]: 7.62; pKi [1]: 8.00; pIC50 [16]: 5.55 |
| O=C(CCCN1CCC(O)(c2ccc(Cl)cc2)CC1)c1ccc(F)cc1 [HALOPERIDOL] |  |  |  |  | Not Active |  |  |  |  |  |  | Not Active | Not Active | Not Active | Not Active |  |  |  |  | Not Active | IC50 [17]: Not Active |
| CC(CCc1ccccc1)NCC(O)c1ccc(O)c(C(N)=O)c1 (stereo unspecified) [LABETALOL] | Not Active | Not Active | Not Active | Not Active | Not Active | Not Active | Not Active | Not Active | Not Active | Not Active | Not Active | Not Active | Not Active | Not Active | Not Active | Not Active | Not Active | Not Active | Not Active | Not Active | pIC50 [1]: 7.24; pKi [1]: 7.64; Ki [14]: Not Active |
| CCC[C@@H]1C[C@@H](C(=O)N[C@@H]([C@H]2O[C@H](SC)[C@H](O)[C@@H](O)[C@H]2O)[C@@H](C)O)N(C)C1 [LINCOMYCIN] | Not Active | Not Active | Not Active | Not Active | Not Active | Not Active | Not Active | Not Active | Not Active | Not Active | Not Active | Not Active | Not Active | Not Active | Not Active | Not Active | Not Active | Not Active |  | Not Active | IC50 [1]: Not Active; IC50 [17]: Not Active; Ki [14]: Not Active |
| COS(C)(=O)=O [METHANESULFONIC ACID METHYL ESTER] | Not Active | Not Active | Not Active | Not Active | Not Active | Not Active | Not Active | Not Active | Not Active | Not Active | Not Active | Not Active | Not Active | Not Active | Not Active | Not Active | Not Active | Not Active |  | Not Active | IC50 [1]: Not Active; IC50 [17]: Not Active; Ki [14]: Not Active |
| CN1CCN2c3ccccc3Cc3ccccc3C2C1 (stereo unspecified) [MIANSERIN] |  |  |  |  | Not Active | Not Active |  |  |  |  |  | Not Active | Not Active | Not Active | Not Active |  |  |  | Not Active | Not Active | IC50 [17]: Not Active |
| CC(C)(C)NCC(O)c1cc(O)cc(O)c1 (stereo unspecified) [TERBUTALINE] | Not Active | Not Active | Not Active | Not Active | Not Active | Not Active | Not Active | Not Active | Not Active | Not Active | Not Active | Not Active | Not Active | Not Active | Not Active | Not Active | Not Active | Not Active | Not Active | Not Active | IC50 [1]: Not Active; Ki [14]: Not Active |
| CSc1ccc2c(c1)N(CCC1CCCCN1C)c1ccccc1S2 (stereo unspecified) [THIORIDAZINE] |  |  |  |  | Not Active |  |  |  |  |  |  | Not Active | Not Active | Not Active | Not Active |  |  |  | Not Active |  | pIC50 [1]: 8.29; pKi [1]: 8.69; IC50 [17]: Not Active; pIC50 ([5]; read-out: IC50): 5.83; pKi ([5]; read-out: Ki): 6.29; pIC50 [16]: 5.30 |
